# Entries after “also recorded” stand apart in the source; their conditions may differ. Where two headings read alike, the source gives them in different places.
# Tests used:
# AD model mouse = assay: In vivo study of C41 and F03 in an AD model mouse
# Excerpt: Panel A: Novel object preference; Panel B: Novel location preference; Panel C: sAPPα.
# Panel A: sAPPβ; Panel B: the sAPPα/sAPPβ ratio.
# Compounds meeting the initial screening criteria were then subjected to in vivo testing.
# CYP1A2 = target: T1, CYP1A2 (Homo sapiens, UniProt P05177); assay: CYP inhibition screen CYP1A2; assay type: in vitro ADME
# T1 sequence (P05177 1-516): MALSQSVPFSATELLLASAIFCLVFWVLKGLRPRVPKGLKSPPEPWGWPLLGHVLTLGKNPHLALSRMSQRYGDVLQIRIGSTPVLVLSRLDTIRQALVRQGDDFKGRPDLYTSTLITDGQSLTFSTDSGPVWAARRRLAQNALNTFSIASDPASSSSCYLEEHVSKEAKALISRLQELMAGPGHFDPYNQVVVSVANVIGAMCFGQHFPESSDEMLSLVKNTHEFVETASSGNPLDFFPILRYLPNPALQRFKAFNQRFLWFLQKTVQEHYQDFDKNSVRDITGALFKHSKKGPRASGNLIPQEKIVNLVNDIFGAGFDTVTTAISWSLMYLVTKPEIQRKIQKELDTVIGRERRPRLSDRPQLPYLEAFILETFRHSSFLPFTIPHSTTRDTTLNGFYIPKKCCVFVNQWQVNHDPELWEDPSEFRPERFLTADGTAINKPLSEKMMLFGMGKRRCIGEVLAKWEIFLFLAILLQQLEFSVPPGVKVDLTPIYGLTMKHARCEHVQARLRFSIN
# [1] = test system: sAPPα, Aβ1-42 in CHO-7W cells; assay: Secondary screen, sAPPα and Aβ in CHO-7W cells; assay type: cell-based
# Excerpt: Compound C41 was initially identified by screening a library of compounds in a series of steps. First compounds were screened in a primary screen to determine the effect on sAPPα in SH-SYSY cells (see, e.g., FIG. 4). Compounds that elicited an increase in sAPPα of at least 10% were subjected to a secondary screen in CHO-7W cells for their effect on sAPPα and Aβ (see, e.g., FIG. 5).
# α7 = α7 (Homo sapiens, UniProt P36544); assay: Target binding α7
# Sequence of α7 (P36544 23-502): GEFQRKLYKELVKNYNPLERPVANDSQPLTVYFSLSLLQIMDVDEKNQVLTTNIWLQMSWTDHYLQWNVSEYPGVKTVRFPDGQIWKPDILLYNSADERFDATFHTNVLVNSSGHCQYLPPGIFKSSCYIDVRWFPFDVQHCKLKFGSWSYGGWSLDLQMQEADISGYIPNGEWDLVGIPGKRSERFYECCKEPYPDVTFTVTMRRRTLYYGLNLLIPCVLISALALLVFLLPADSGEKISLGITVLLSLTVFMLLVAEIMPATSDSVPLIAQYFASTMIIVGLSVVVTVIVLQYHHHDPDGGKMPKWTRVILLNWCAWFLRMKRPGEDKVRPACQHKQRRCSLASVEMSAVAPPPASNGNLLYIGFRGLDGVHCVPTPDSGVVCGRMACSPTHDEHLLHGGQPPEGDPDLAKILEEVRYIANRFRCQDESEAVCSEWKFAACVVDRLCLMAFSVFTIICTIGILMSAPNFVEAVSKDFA
# S9 stability, rat = assay type: in vitro ADME
# AD model mice = assay: Oral efficacy studies in mice; assay type: in vivo
# Excerpt: Thus, C41 was identified as a good new chemical entity (NCE) based on the testing. In particular C41 in vitro and in vivo profile met the advancement criteria in SH-SYSY and CHO-7W in vitro screens.
# AD mouse model = assay: Synaptic load, synaptophysin labeling of hippocampus; assay type: in vivo
# Description: FIG. 16 illustrates mechanistic confirmation studies for determination of synaptic load.
# Mechanistic confirmation studies for determination of synaptic load were performed using antibody-labeling of synaptophysin with a green fluorescent tag. […] The improvements in NLR and NOR may be correlated to the restoration of synaptic load, increases in sAPPα or the sAPPα/sAPPβ ratio; increases in the sAPPα/Aβ1-42 ratio; decreases in the p-tau/tau ratio, and/or decreases in APPneo (c-terminal cleavage).
# [2] = Acute non-GLP toxicity study, oral 450 mg/kg; assay type: in vivo, rats; conditions: for concentration at 24 h: rat, in vivo
# Description: Acute non-GLP toxicity study was performed using an oral dose of 450 mg/kg. At 24 hours post-dosing, brain levels were 2924 ng/g and plasma levels were 115 ng/ml.
# [3] = Panel binding test (Cerep broad screening panel)
# CYP2D6 = CYP2D6 (Homo sapiens, UniProt P10635); assay: CYP inhibition screen CYP2D6; assay type: in vitro ADME
# Sequence of CYP2D6 (P10635 whole entry): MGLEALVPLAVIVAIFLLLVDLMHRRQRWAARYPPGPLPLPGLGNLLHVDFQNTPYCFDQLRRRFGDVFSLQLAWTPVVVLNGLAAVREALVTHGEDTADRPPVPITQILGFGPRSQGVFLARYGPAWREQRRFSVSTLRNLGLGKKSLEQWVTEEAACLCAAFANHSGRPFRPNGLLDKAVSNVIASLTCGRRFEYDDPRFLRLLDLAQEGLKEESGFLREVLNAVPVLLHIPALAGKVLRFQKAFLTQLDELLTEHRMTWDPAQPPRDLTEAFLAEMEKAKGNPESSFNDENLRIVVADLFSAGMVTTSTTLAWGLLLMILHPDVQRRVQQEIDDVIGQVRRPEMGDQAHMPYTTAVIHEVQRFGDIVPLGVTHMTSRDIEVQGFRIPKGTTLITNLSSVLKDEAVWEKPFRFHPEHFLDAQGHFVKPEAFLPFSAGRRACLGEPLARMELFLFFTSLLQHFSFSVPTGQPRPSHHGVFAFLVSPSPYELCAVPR
# B254 mice = assay: C41 lead confirmation in B254 mice; assay type: in vivo; conditions: 4 weeks oral 4 mkd
# Excerpt: FIG. 15 illustrates the result of C41 lead confirmation in B254 mice. Panel A: Novel Location Recognition; Panel B: Novel Object Recognition; Panel C: sAPPα; Panel D: Aβ40; Panel E: Aβ42; Panel F: p-tau/tau.
# S9 stability, guinea pig = assay type: in vitro ADME
compound,measurement,setting,value
"CN1[C@@H]2CC[C@H]1C[C@@H](OC(=O)c1c[nH]c3cc(F)ccc13)C2 [Compound C41, (1R,3R,5S)-8-methyl-8-azabicyclo[3.2.1]octan-3-yl 6-fluoro-1H-indole-3-carboxylate]",Aβ1-42 levels in vivo,AD model mouse,did not change
same,Aβ40/42 ratio in vivo,AD model mouse,not changed
same,sAPPα in vivo,AD model mouse,increased significantly
same,sAPPα/Aβ1-42 ratio in vivo,AD model mouse,not increased
same,sAPPα/sAPPβ ratio in vivo,AD model mouse,significantly greater increase with C41 than F03
same,sAPPβ in vivo,AD model mouse,greater decrease in sAPPβ than F03
same,short-term working object memory (novel object preference),AD model mouse,approximately 85 % of NTg level
same,"spatial memory, novel location recognition test",AD model mouse,improved spatial memory
same,IC50,CYP1A2,> 30 µM
same,inhibition at 10 µM,CYP1A2; human,0.35%
same,inhibition at 30 µM,CYP1A2; human,0.33%
same,Secondary Screen (CHO-7W) sAPPα,[1]; ↑ increase,↑>20%
same,Secondary Screen (CHO-7W) sAppα/Aβ,[1]; ↑ increase of ratio,↑>50%
same,Secondary Screen (CHO-7W) Aβ1-42,[1]; ↓ decrease,↓>20%
same,Target α7,α7,1100 nM
same,half-life,"S9 stability, rat",21.8 min
same,efficacy in dose-response studies,AD model mice; mice,Efficacy was seen
same,efficacy in 4-week standard oral study,"AD model mice; mice, oral, 4 weeks",Efficacy was seen
same,efficacy in 12-week study,AD model mice; old AD model mice with advanced pathology,efficacy was seen
same,synaptic load / synaptic density in hippocampus,AD mouse model,restore synaptic density; also recorded: restored synaptic load
same,acute toxicity finding,"[2]; oral 450 mg/kg, likely due to the corn syrup vehicle",some dilation of the vessels on the surface of the intestine
same,concentration at 24 h,"[2]; po, 450 mg/kg",115 ng/mL
same,concentration at 24 h,"[2]; oral 450 mg/kg, 24 hours post-dosing, read-out: brain levels",2920 ng/g
same,profile in panel binding test / activity in broad screening panel,[3],clean profile; also recorded: Overall clean
same,IC50,CYP2D6,> 30 µM
same,inhibition at 10 µM,CYP2D6; human,19.9%
same,inhibition at 30 µM,CYP2D6; human,36.1%
same,Aβ40,B254 mice,trend for Aβ40 and 42 to decrease
same,Aβ42,B254 mice,trend for Aβ40 and 42 to decrease
same,novel location recognition,B254 mice,some improvement
same,novel object recognition,B254 mice,significant improvement
same,p-Tau/Tau ratio,B254 mice,significantly decreased
same,Metabolic Half-Life Guinea Pig S9,"S9 stability, guinea pig",>60 min
same,half-life,"S9 stability, guinea pig",> 60 min
